{"source": "patent US10294202B2", "about": "“Pyrrolidinones as herbicides” (FMC Corporation, priority 2013, dated 2019)", "key": {"pigweed": {"test_system": "pigweed", "assay": "Test A pre-/postemergence herbicide test", "type": "in vivo, Amaranthus retroflexus", "conditions": "1000 g ai/ha", "summary_of_the_method": "(§1)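 Scoring was visual, relative to untreated controls, on a 0–100 scale after about 10 greenhouse days. Preemergence treatment used a directed soil spray over seeded loam/sand; postemergence treatment targeted one- to two-leaf plants of 2–10 cm.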"}, "corn": {"test_system": "corn", "assay": "Test A pre-/postemergence herbicide test", "type": "in vivo, Zea mays", "conditions": "1000 g ai/ha", "summary_of_the_method": "as §1"}, "ducksalad": {"test_system": "ducksalad", "assay": "Test C flooded paddy test", "type": "in vivo, Heteranthera limosa", "conditions": "Flood", "summary_of_the_method": "(§2)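 Plants at the 2-leaf stage in pots flooded to 3 cm were treated by applying compound directly to the paddy water, with depth held throughout. After 13 to 15 days in a greenhouse, response was rated visually against controls on a 0 (no effect) to 100 (complete control) scale.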"}, "barnyardgrass [1]": {"test_system": "barnyardgrass", "assay": "Test A pre-/postemergence herbicide test", "type": "in vivo, Echinochloa crus-galli", "conditions": "1000 g ai/ha", "summary_of_the_method": "as §1"}, "wheat": {"test_system": "wheat", "assay": "Test A pre-/postemergence herbicide test", "type": "in vivo, Triticum aestivum", "conditions": "1000 g ai/ha", "summary_of_the_method": "as §1"}, "rice": {"test_system": "rice", "assay": "Test C flooded paddy test", "type": "in vivo, Oryza sativa", "conditions": "Flood", "summary_of_the_method": "as §2"}, "velvetleaf": {"test_system": "velvetleaf", "assay": "Test A pre-/postemergence herbicide test", "type": "in vivo, Abutilon theophrasti", "conditions": "1000 g ai/ha", "summary_of_the_method": "as §1"}, "crabgrass, large": {"test_system": "crabgrass, large", "assay": "Test A pre-/postemergence herbicide test", "type": "in vivo, Digitaria sanguinalis", "conditions": "1000 g ai/ha", "summary_of_the_method": "as §1"}, "morningglory": {"test_system": "morningglory", "assay": "Test A pre-/postemergence herbicide test", "type": "in vivo, Ipomoea spp.", "conditions": "1000 g ai/ha", "summary_of_the_method": "as §1"}, "giant foxtail": {"test_system": "giant foxtail", "assay": "Test A pre-/postemergence herbicide test", "type": "in vivo, Setaria faberii", "conditions": "1000 g ai/ha", "summary_of_the_method": "as §1"}, "sedge, umbrella": {"test_system": "sedge, umbrella", "assay": "Test C flooded paddy test", "type": "in vivo, Cyperus difformis", "conditions": "Flood", "summary_of_the_method": "as §2"}, "barnyardgrass [2]": {"test_system": "barnyardgrass", "assay": "Test C flooded paddy test", "type": "in vivo, Echinochloa crus-galli", "conditions": "Flood", "summary_of_the_method": "as §2"}, "[3]": {"conditions": "Postemergence, 0 to 100 scale (0 no effect, 100 complete control)"}, "[4]": {"conditions": "Preemergence, visual rating on 0 to 100 scale (0 no effect, 100 complete control), approx. 10 days"}, "[5]": {"conditions": "31 g ai/ha, scale of 0 to 100 where 0 is no effect and 100 is complete control, 13 to 15 days"}, "[6]": {"conditions": "62 g ai/ha, scale of 0 to 100 where 0 is no effect and 100 is complete control, 13 to 15 days"}, "[7]": {"conditions": "125 g ai/ha, scale of 0 to 100 where 0 is no effect and 100 is complete control, 13 to 15 days"}}}
{"smiles": "O=C1NCC(c2ccc(F)c(F)c2)C1C(=O)Nc1ccccc1[N+](=O)[O-]", "note": "(racemic) [Compound 20]", "values": [{"measurement": "Plant response rating, Pigweed", "setting": "pigweed; [3]", "result": 0}, {"measurement": "Plant response rating, Pigweed", "setting": "pigweed; [4]", "result": 0}, {"measurement": "Plant response rating, Corn", "setting": "corn; [3]", "result": 0}, {"measurement": "Plant response rating, Corn", "setting": "corn; [4]", "result": 0}, {"measurement": "Plant response rating, Ducksalad", "setting": "ducksalad; [5]", "result": 0}, {"measurement": "Plant response rating, Ducksalad", "setting": "ducksalad; [6]", "result": 0}, {"measurement": "Plant response rating, Ducksalad", "setting": "ducksalad; [7]", "result": 0}, {"measurement": "Plant response rating, Ducksalad", "setting": "ducksalad; 250 g ai/ha, scale 0 to 100", "result": 0}, {"measurement": "Plant response rating, Barnyardgrass", "setting": "barnyardgrass [1]; [3]", "result": 80}, {"measurement": "Plant response rating, Barnyardgrass", "setting": "barnyardgrass [1]; [4]", "result": 90}, {"measurement": "Plant response rating, Wheat", "setting": "wheat; [3]", "result": 20}, {"measurement": "Plant response rating, Wheat", "setting": "wheat; [4]", "result": 0}, {"measurement": "Plant response rating, Rice", "setting": "rice; [5]", "result": 0}, {"measurement": "Plant response rating, Rice", "setting": "rice; [6]", "result": 0}, {"measurement": "Plant response rating, Rice", "setting": "rice; [7]", "result": 0}, {"measurement": "Plant response rating, Rice", "setting": "rice; 250 g ai/ha, scale 0 to 100", "result": 0}, {"measurement": "Plant response rating, Velvetleaf", "setting": "velvetleaf; [3]", "result": 0}, {"measurement": "Plant response rating, Velvetleaf", "setting": "velvetleaf; [4]", "result": 30}, {"measurement": "Plant response rating, Crabgrass, Large", "setting": "crabgrass, large; [3]", "result": 90}, {"measurement": "Plant response rating, Crabgrass, Large", "setting": "crabgrass, large; [4]", "result": 90}, {"measurement": "Plant response rating, Morningglory", "setting": "morningglory; [3]", "result": 0}, {"measurement": "Plant response rating, Morningglory", "setting": "morningglory; [4]", "result": 0}, {"measurement": "Plant response rating, Foxtail, Giant", "setting": "giant foxtail; [3]", "result": 80}, {"measurement": "Plant response rating, Foxtail, Giant", "setting": "giant foxtail; [4]", "result": 90}, {"measurement": "Plant response rating, Sedge, Umbrella", "setting": "sedge, umbrella; [5]", "result": 0}, {"measurement": "Plant response rating, Sedge, Umbrella", "setting": "sedge, umbrella; [6]", "result": 0}, {"measurement": "Plant response rating, Sedge, Umbrella", "setting": "sedge, umbrella; [7]", "result": 0}, {"measurement": "Plant response rating, Sedge, Umbrella", "setting": "sedge, umbrella; 250 g ai/ha, scale 0 to 100", "result": 0}, {"measurement": "Plant response rating, Barnyardgrass", "setting": "barnyardgrass [2]; [5]", "result": 0}, {"measurement": "Plant response rating, Barnyardgrass", "setting": "barnyardgrass [2]; [6]", "result": 0}, {"measurement": "Plant response rating, Barnyardgrass", "setting": "barnyardgrass [2]; [7]", "result": 0}, {"measurement": "Plant response rating, Barnyardgrass", "setting": "barnyardgrass [2]; 250 g ai/ha, scale 0 to 100", "result": 0}]}
{"smiles": "O=C1NCC(c2ccc(F)c(F)c2)C1C(=O)Nc1ccc(F)cc1F", "note": "(racemic) [Compound 23]", "values": [{"measurement": "Plant response rating, Pigweed", "setting": "pigweed; [3]", "result": 0}, {"measurement": "Plant response rating, Corn", "setting": "corn; [3]", "result": 0}, {"measurement": "Plant response rating, Corn", "setting": "corn; [4]", "result": 0}, {"measurement": "Plant response rating, Ducksalad", "setting": "ducksalad; [6]", "result": 30}, {"measurement": "Plant response rating, Ducksalad", "setting": "ducksalad; 250 g ai/ha, scale 0 to 100", "result": 100}, {"measurement": "Plant response rating, Barnyardgrass", "setting": "barnyardgrass [1]; [3]", "result": 90}, {"measurement": "Plant response rating, Barnyardgrass", "setting": "barnyardgrass [1]; [4]", "result": 90}, {"measurement": "Plant response rating, Wheat", "setting": "wheat; [3]", "result": 0}, {"measurement": "Plant response rating, Wheat", "setting": "wheat; [4]", "result": 0}, {"measurement": "Plant response rating, Rice", "setting": "rice; [6]", "result": 0}, {"measurement": "Plant response rating, Rice", "setting": "rice; 250 g ai/ha, scale 0 to 100", "result": 0}, {"measurement": "Plant response rating, Velvetleaf", "setting": "velvetleaf; [3]", "result": 40}, {"measurement": "Plant response rating, Velvetleaf", "setting": "velvetleaf; [4]", "result": 40}, {"measurement": "Plant response rating, Crabgrass, Large", "setting": "crabgrass, large; [3]", "result": 80}, {"measurement": "Plant response rating, Crabgrass, Large", "setting": "crabgrass, large; [4]", "result": 90}, {"measurement": "Plant response rating, Morningglory", "setting": "morningglory; [3]", "result": 0}, {"measurement": "Plant response rating, Morningglory", "setting": "morningglory; [4]", "result": 0}, {"measurement": "Plant response rating, Foxtail, Giant", "setting": "giant foxtail; [3]", "result": 80}, {"measurement": "Plant response rating, Foxtail, Giant", "setting": "giant foxtail; [4]", "result": 90}, {"measurement": "Plant response rating, Sedge, Umbrella", "setting": "sedge, umbrella; [6]", "result": 0}, {"measurement": "Plant response rating, Sedge, Umbrella", "setting": "sedge, umbrella; 250 g ai/ha, scale 0 to 100", "result": 30}, {"measurement": "Plant response rating, Barnyardgrass", "setting": "barnyardgrass [2]; [6]", "result": 0}, {"measurement": "Plant response rating, Barnyardgrass", "setting": "barnyardgrass [2]; 250 g ai/ha, scale 0 to 100", "result": 0}]}
{"smiles": "O=C1NCC(c2ccc(Cl)c(Cl)c2)C1C(=O)Nc1ccccc1C(F)(F)F", "note": "(racemic) [Compound 26]", "values": [{"measurement": "Plant response rating, Pigweed", "setting": "pigweed; [3]", "result": 0}, {"measurement": "Plant response rating, Pigweed", "setting": "pigweed; [4]", "result": 0}, {"measurement": "Plant response rating, Corn", "setting": "corn; [3]", "result": 0}, {"measurement": "Plant response rating, Corn", "setting": "corn; [4]", "result": 0}, {"measurement": "Plant response rating, Ducksalad", "setting": "ducksalad; [6]", "result": 0}, {"measurement": "Plant response rating, Ducksalad", "setting": "ducksalad; 250 g ai/ha, scale 0 to 100", "result": 80}, {"measurement": "Plant response rating, Barnyardgrass", "setting": "barnyardgrass [1]; [3]", "result": 70}, {"measurement": "Plant response rating, Barnyardgrass", "setting": "barnyardgrass [1]; [4]", "result": 70}, {"measurement": "Plant response rating, Wheat", "setting": "wheat; [3]", "result": 0}, {"measurement": "Plant response rating, Wheat", "setting": "wheat; [4]", "result": 0}, {"measurement": "Plant response rating, Rice", "setting": "rice; [6]", "result": 0}, {"measurement": "Plant response rating, Rice", "setting": "rice; 250 g ai/ha, scale 0 to 100", "result": 0}, {"measurement": "Plant response rating, Velvetleaf", "setting": "velvetleaf; [3]", "result": 0}, {"measurement": "Plant response rating, Velvetleaf", "setting": "velvetleaf; [4]", "result": 0}, {"measurement": "Plant response rating, Crabgrass, Large", "setting": "crabgrass, large; [3]", "result": 60}, {"measurement": "Plant response rating, Crabgrass, Large", "setting": "crabgrass, large; [4]", "result": 90}, {"measurement": "Plant response rating, Morningglory", "setting": "morningglory; [3]", "result": 0}, {"measurement": "Plant response rating, Morningglory", "setting": "morningglory; [4]", "result": 0}, {"measurement": "Plant response rating, Foxtail, Giant", "setting": "giant foxtail; [3]", "result": 70}, {"measurement": "Plant response rating, Foxtail, Giant", "setting": "giant foxtail; [4]", "result": 90}, {"measurement": "Plant response rating, Sedge, Umbrella", "setting": "sedge, umbrella; [6]", "result": 0}, {"measurement": "Plant response rating, Sedge, Umbrella", "setting": "sedge, umbrella; 250 g ai/ha, scale 0 to 100", "result": 0}, {"measurement": "Plant response rating, Barnyardgrass", "setting": "barnyardgrass [2]; [6]", "result": 0}, {"measurement": "Plant response rating, Barnyardgrass", "setting": "barnyardgrass [2]; 250 g ai/ha, scale 0 to 100", "result": 0}]}
